Counter-ions that a name gives are not always drawn.
Each compound was assayed against human GlyT1c transporter (Homo sapiens (Human), UniProt P48067) (assay: Radioligand binding assay using recombinant CHO cell membranes expressing human GlyT1). Conditions: examples 88-204, radioligand not specified by footnote, read-out: radioligand binding Kiapp.
Sequence of human GlyT1c transporter (P48067 whole entry): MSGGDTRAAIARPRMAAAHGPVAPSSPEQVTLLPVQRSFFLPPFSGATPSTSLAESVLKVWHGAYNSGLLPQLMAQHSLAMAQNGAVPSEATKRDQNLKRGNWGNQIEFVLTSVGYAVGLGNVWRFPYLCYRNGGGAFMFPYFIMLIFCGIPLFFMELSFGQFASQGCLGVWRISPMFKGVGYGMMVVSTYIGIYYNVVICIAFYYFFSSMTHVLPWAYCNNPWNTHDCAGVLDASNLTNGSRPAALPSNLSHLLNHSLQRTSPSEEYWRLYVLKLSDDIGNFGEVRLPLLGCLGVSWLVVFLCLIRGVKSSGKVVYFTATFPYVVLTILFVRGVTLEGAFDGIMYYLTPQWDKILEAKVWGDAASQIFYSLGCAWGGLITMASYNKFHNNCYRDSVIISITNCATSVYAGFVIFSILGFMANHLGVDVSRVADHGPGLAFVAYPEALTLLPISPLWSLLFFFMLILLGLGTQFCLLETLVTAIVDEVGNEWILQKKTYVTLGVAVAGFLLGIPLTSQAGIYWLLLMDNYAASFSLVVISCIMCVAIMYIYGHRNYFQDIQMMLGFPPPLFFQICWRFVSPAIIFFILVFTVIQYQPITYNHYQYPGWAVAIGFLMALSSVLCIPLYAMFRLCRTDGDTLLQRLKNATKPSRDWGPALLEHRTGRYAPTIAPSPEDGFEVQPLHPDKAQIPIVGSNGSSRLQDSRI
Procedure, shortened: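 Competition binding of [^3H]-(R)-NPTS (0.5 nM) to CHO membranes expressing human GlyT1c (50 μg/ml protein) in pH 7.5 Hepes/NaCl buffer with 1% DMSO, 1 h at room temperature. Non-specific binding defined with 10 μM Org24598; filtration and scintillation counting, one-site fit, Ki via Cheng-Prusoff.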
`O=S(=O)(NCCOc1ccc2c(c1)C(C1(c3ccc(Cl)cc3)CCC1)NCC2)c1ncn[nH]1` (centres unmarked) [Example 204, N-[2-({1-[1-(4-Chlorophenyl)cyclobutyl]-1,2,3,4-tetrahydroisoquinolin-7-yl}oxy)ethyl]-1H-1,2,4-triazole-5-sulfonamide] was tested, and the Ki was ≤ 100 µM.

These compounds were tested against human GlyT1c (Homo sapiens (Human), UniProt P48067) (assay: [3H]-Glycine uptake into recombinant CHO cells expressing human GlyT1). Conditions: hGlyT1c_5_CHO cells, 200 nM [3H]-glycine.
Sequence of human GlyT1c (P48067 whole entry): as above
Assay type: cell-based
Protocol: [^3H]-Glycine uptake into recombinant CHO cells expressing human GlyT1: Human GlyT1c expressing recombinant hGlyT1c—5_CHO cells were plated at 20,000 cells per well in 96 well Cytostar-T scintillation microplates (Amersham Biosciences) and cultured to sub-confluency for 24 h. […] The plates were placed in a Wallac Microbeta (PerkinElmer) and continuously counted by solid phase scintillation spectrometry during up to 3 hours. […] IC50 calculations were made by four-parametric logistic nonlinear regression analysis (GraphPad Prism) using determinations within the range of linear increase of [^3H]-glycine incorporation between 60 and 120 min.
For `O=C(NCCOc1ccc2c(c1)C(C1(c3ccc(Cl)cc3)CCC1)NCC2)c1ccccc1` (centres unmarked) [Example 3, N-(2-{1-[1-(4-Chloro-phenyl)-cyclobutyl]-1,2,3,4-tetrahydro-isoquinolin-7-yloxy}-ethyl)-benzamide], the IC50 was ≤ 10 µM. For `CC(C)C(=O)NCCOc1ccc2c(c1)C(C1(c3ccc(Cl)cc3)CCC1)NCC2` (centres unmarked) [Example 5, N-(2-{1-[1-(4-Chloro-phenyl)-cyclobutyl]-1,2,3,4-tetrahydro-isoquinolin-7-yloxy}-ethyl)-isobutyramide], the IC50 was ≤ 100 µM. In the case of `CC(=O)NCCOc1ccc2c(c1)C(C1(c3ccc(Cl)cc3)CCC1)NCC2` (centres unmarked) [Example 6, N-(2-{1-[1-(4-Chloro-phenyl)-cyclobutyl]-1,2,3,4-tetrahydro-isoquinolin-7-yloxy}-ethyl)-acetamide], the IC50 is reported as ≤ 10 µM. In the case of `CCCNC(=O)NCCOc1ccc2c(c1)C(C1(c3ccc(Cl)cc3)CCC1)NCC2` (centres unmarked) [Example 33, 1-(2-{1-[1-(4-Chloro-phenyl)-cyclobutyl]-1,2,3,4-tetrahydro-isoquinolin-7-yloxy}-ethyl)-3-propyl-urea hydrochloride], the IC50 is reported as ≤ 10 µM. `O=C(NCCOc1ccc2c(c1)C(C1(c3ccc(Cl)cc3)CCC1)NCC2)Nc1ccccc1` (centres unmarked) [Example 34, hydrochloride] was tested, and the IC50 was ≤ 10 µM. `Cc1nn(C)cc1S(=O)(=O)NCCOc1ccc2c(c1)C(C1(c3ccc(Cl)cc3)CCC1)NCC2` (centres unmarked) [Example 35, 1,3-Dimethyl-1H-pyrazole-4-sulfonic acid (2-{1-[1-(4-chloro-phenyl)-cyclobutyl]-1,2,3,4-tetrahydro-isoquinolin-7-yloxy}-ethyl)-amide hydrochloride] was tested, and the IC50 was ≤ 1 µM. `CC(C)NC(=O)NCCOc1ccc2c(c1)C(C1(c3ccc(Cl)cc3)CCC1)NCC2` (centres unmarked) [Example 36, 1-(2-{1-[1-(4-Chloro-phenyl)-cyclobutyl]-1,2,3,4-tetrahydro-isoquinolin-7-yloxy}-ethyl)-3-isopropyl-urea hydrochloride] was tested, and the IC50 was ≤ 100 µM. In the case of `Cn1cc(S(=O)(=O)NCCOc2ccc3c(c2)C(C2(c4ccc(Cl)cc4)CCC2)NCC3)cn1` (centres unmarked) [Example 37, 1-Methyl-1H-pyrazole-4-sulfonic acid (2-{1-[1-(4-chloro-phenyl)-cyclobutyl]-1,2,3,4-tetrahydro-isoquinolin-7-yloxy}-ethyl)-amide hydrochloride], the IC50 is reported as ≤ 0.1 µM. `CC(C)S(=O)(=O)NCCOc1ccc2c(c1)C(C1(c3ccc(Cl)cc3)CCC1)NCC2` (centres unmarked) [Example 38, Propane-2-sulfonic acid (2-{1-[1-(4-chloro-phenyl)-cyclobutyl]-1,2,3,4-tetrahydro-isoquinolin-7-yloxy}-ethyl)-amide hydrochloride] was tested, and the IC50 was ≤ 0.1 µM. For `CCCCS(=O)(=O)NCCOc1ccc2c(c1)C(C1(c3ccc(Cl)cc3)CCC1)N(C(=O)NCC)CC2` (centres unmarked) [Example 39, 7-[2-(Butane-1-sulfonylamino)-ethoxy]-1-[1-(4-chloro-phenyl)-cyclobutyl]-3,4-dihydro-1H-isoquinoline-2-carboxylic acid ethylamide hydrochloride], the IC50 was ≤ 100 µM. For `CCCCS(=O)(=O)NCCOc1ccc2c(c1)C(C1(c3ccc(Cl)cc3)CCC1)N(C)CC2` (centres unmarked) [Example 40, Butane-1-sulfonic acid (2-{1-[1-(4-chloro-phenyl)-cyclobutyl]-2-methyl-1,2,3,4-tetrahydro-isoquinolin-7-yloxy}-ethyl)-amide], the IC50 was ≤ 1 µM. `CCS(=O)(=O)N1CCN(c2ccc3c(c2)C(C2(c4ccc(Cl)cc4)CCC2)NCC3)CC1` (centres unmarked) [Example 41, 1-[1-(4-Chloro-phenyl)-cyclobutyl]-7-(4-ethanesulfonyl-piperazin-1-yl)-1,2,3,4-tetrahydro-isoquinoline] was tested, and the IC50 was ≤ 100 µM. For `O=C(NCCOc1ccc2c(c1)C(C1(c3ccc(Cl)cc3)CCC1)NCC2)Nc1cccnc1` (centres unmarked) [Example 42, 1-(2-{1-[1-(4-Chloro-phenyl)-cyclobutyl]-1,2,3,4-tetrahydro-isoquinolin-7-yloxy}-ethyl)-3-pyridin-3-yl-urea hydrochloride], the IC50 was ≤ 100 µM. For `Cn1cc(S(=O)(=O)NCCOc2ccc3c(c2)C(C2(c4ccc(Cl)cc4)CC(F)(F)C2)NCC3)cn1` (centres unmarked) [Example 43, 1-Methyl-1H-pyrazole-4-sulfonic acid (2-{1-[1-(4-chloro-phenyl)-3,3-difluoro-cyclobutyl]-1,2,3,4-tetrahydro-isoquinolin-7-yloxy}-ethyl)-amidehydrochloride], the IC50 was ≤ 0.1 µM. For `CCCS(=O)(=O)NCCOc1ccc2c(c1)C(C1(c3ccc(Cl)cc3)CC(F)(F)C1)NCC2` (centres unmarked) [Example 44, Propane-1-sulfonic acid (2-{1-[1-(4-chloro-phenyl)-3,3-difluoro-cyclobutyl]-1,2,3,4-tetrahydro-isoquinolin-7-yloxy}-ethyl)-amide hydrochloride], the IC50 was ≤ 0.1 µM. In the case of `CCCS(=O)(=O)NCCN(CCOc1ccc2c(c1)C(C1(c3ccc(Cl)cc3)CCC1)NCC2)S(=O)(=O)CCC` (centres unmarked) [Example 45, Propane-1-sulfonic acid (2-{1-[1-(4-chloro-phenyl)-cyclobutyl]-1,2,3,4-tetrahydro-isoquinolin-7-yloxy}-ethyl)-[2-(propane-1-sulfonylamino)-ethyl]amide], the IC50 is reported as ≤ 1 µM. With `CCCS(=O)(=O)NCCOc1ccc2c(c1)C(C1(c3ccc(Cl)cc3)CCC1)N(C(=N)NC#N)CC2` (centres unmarked) [Example 46, 1-(1-(4-Chlorophenyl)cyclobutyl)-N-cyano-7-(2-(propylsulfonamido)ethoxy)-3,4-dihydroisoquinoline-2(1H)-carboximidamide] the IC50 was ≤ 1 µM. With `CCCS(=O)(=O)NCCOc1ccc2c(c1)C(C1(c3ccc(Cl)cc3)CCC1)N(C(=N)N)CC2` (centres unmarked) [Example 47, 1-[1-(4-Chloro-phenyl)-cyclobutyl]-7-[2-(propane-1-sulfonylamino)-ethoxy]-3,4-dihydro-1H-isoquinoline-2-carboxamidine] the IC50 was ≤ 10 µM. `O=C(COc1ccc2c(c1)C(C1(c3ccc(Cl)cc3)CCC1)NCC2)N1CCNCC1` (centres unmarked) [Example 48, 2-{1-[1-(4-Chloro-phenyl)-cyclobutyl]-1,2,3,4-tetrahydro-isoquinolin-7-yloxy}-1-piperazin-1-yl-ethanone] was tested, and the IC50 was ≤ 10 µM. For `CCCS(=O)(=O)NCCOc1ccc2c(c1)C(C1(c3cccc(Cl)c3)CCC1)NCC2` (centres unmarked) [Example 49, Propane-1-sulfonic acid (2-{1-[1-(3-chloro-phenyl)-cyclobutyl]-1,2,3,4-tetrahydroisoquinolin-7-yloxy}-ethyl)-amide], the IC50 was ≤ 0.1 µM. With `CCCS(=O)(=O)NCCOc1ccc2c(c1)C(C1(c3ccccc3)CCC1)NCC2` (centres unmarked) [Example 50, 1-(1-Phenylcyclobutyl)-7-(2-(propylsulfonamido)ethoxy)-1,2,3,4-tetrahydroisoquinolinium chloride] the IC50 was ≤ 0.1 µM. For `Cn1cnc(S(=O)(=O)NCCOc2ccc3c(c2)C(C2(c4ccc(Cl)cc4)CCC2)NCC3)c1` (centres unmarked) [Example 51, 1-(1-(4-Chlorophenyl)cyclobutyl)-7-(2-(1-methyl-1H-imidazole-4-sulfonamido)ethoxy)-1,2,3,4-tetrahydroisoquinolinium chloride], the IC50 was ≤ 0.1 µM. `Cc1nc(S(=O)(=O)NCCOc2ccc3c(c2)C(C2(c4ccc(Cl)cc4)CCC2)NCC3)cn1C` (centres unmarked) [Example 52, 1-(1-(4-Chlorophenyl)cyclobutyl)-7-(2-(1,2-dimethyl-1H-imidazole-4-sulfonamido)ethoxy)-1,2,3,4-tetrahydroisoquinolinium chloride] was tested, and the IC50 was ≤ 10 µM. For `CCOC(=O)N1CCN(S(=O)(=O)NCCOc2ccc3c(c2)C(C2(c4ccc(Cl)cc4)CCC2)NCC3)CC1` (centres unmarked) [Example 54, Ethyl 4-(N-(2-(1-(1-(4-chlorophenyl)cyclobutyl)-1,2,3,4-tetrahydroisoquinolin-7-yloxy)ethyl)sulfamoyl)piperazine-1-carboxylate hydrochloride], the IC50 was ≤ 10 µM. In the case of `O=S(=O)(NCCOc1ccc2c(c1)C(C1(c3ccc(Cl)cc3)CCC1)NCC2)N1CCNCC1` (centres unmarked) [Example 55, N-(2-(1-(1-(4-Chlorophenyl)cyclobutyl)-1,2,3,4-tetrahydroisoquinolin-7-yloxy)ethyl)piperazine-1-sulfonamide dihydrochloride], the IC50 is reported as ≤ 10 µM. `CCCS(=O)(=O)N1CCN(S(=O)(=O)NCCOc2ccc3c(c2)C(C2(c4ccc(Cl)cc4)CCC2)NCC3)CC1` (centres unmarked) [Example 56, N-(2-(1-(1-(4-Chlorophenyl)cyclobutyl)-1,2,3,4-tetrahydroisoquinolin-7-yloxy)ethyl)-4-(propylsulfonyl)piperazine-1-sulfonamide hydrochloride] was tested, and the IC50 was ≤ 10 µM. `O=S(=O)(NCCOc1ccc2c(c1)C(C1(c3ccc(Cl)cc3)CCC1)NCC2)c1c[nH]cn1` (centres unmarked) [Example 57, N-(2-(1-(1-(4-Chlorophenyl)cyclobutyl)-1,2,3,4-tetrahydroisoquinolin-7-yloxy)ethyl)-1H-imidazole-4-sulfonamide hydrochloride] was tested, and the IC50 was ≤ 0.1 µM. With `O=S(=O)(NCCOc1ccc2c(c1)C(C1(c3ccc(Cl)cc3)CCC1)NCC2)c1ccc(NCc2ccccc2)nc1` (centres unmarked) [Example 58, 6-(Benzylamino)-N-(2-(1-(1-(4-chlorophenyl)cyclobutyl)-1,2,3,4-tetrahydroisoquinolin-7-yloxy)ethyl)pyridine-3-sulfonamide hydrochloride] the IC50 was ≤ 1 µM.

Reference: patent US8653100B2 (AbbVie Inc., priority 2008, dated 2014)
